From patent US20080213780A1, “MULTI-COLOR TIME RESOLVED FLUOROPHORES BASED ON MACROCYCLIC LANTHANIDE COMPLEXES” (Lumiphore, Inc., priority 2007, published 2008)
“And” between values parts separate entries of the source, which are not always exact repeats. Equal entries are not always repeated.

Assays:
[1] = Fluorescence lifetime decay (time-resolved) of the donor-acceptor conjugate; format: physicochemical; settings: for long lifetime: excitation of BH22IAM and energy transfer to fluorescein: terbium complex, excited at BH22IAM absorption (~340 nm), fluorescein emission 520 nm
From the text: A short lifetime corresponding to the direct excitation of fluorescein (3.92 nsec) and a long lifetime corresponding to excitation of BH22IAM and energy transfer to fluorescein (524 nsec).
In another exemplary embodiment, the compounds of the invention emit light at an emission wavelength of the fluorophore attached to the metal chelate through the acceptor-linker. […] For example, compound 3, when coordinated to terbium and excited at a BH22IAM absorption wavelength (˜340 nm), the metal chelate emits at 520 nm, the characteristic wavelength of fluorescein with a lifetime of 524 nsec. The new lifetime is over 100-fold longer than the lifetime for a fluorescein solution that is directly excited (<5 nsec).
The 524 nsec of the conjugated fluorescein is acquired through direct excitation of the Tb-BH22IAM complex at 340 nm, which normally has a very long lifetime (2.6 msec), followed by energy transfer to the conjugated fluorescein and emission at the characteristic wavelength for fluorescein (520 nm).

[2] = Steady-state absorption and emission spectra; format: physicochemical; settings: for emission wavelength / emission maxima: excited at BH22IAM absorption wavelength (~340 nm)
From the text: FIG. 8 is a steady-state absorption spectrum of FITC-BH22IAM conjugate.

| SMILES | long lifetime: excitation of BH22IAM and energy transfer to fluorescein [1] | absorption maximum (BH22IAM) [2] [nm] | absorption maximum (fluorescein) [2] [nm] | emission wavelength / emission maxima [2] | lifetime relative to a directly excited fluorescein solution ([1]; 524 nsec versus <5 nsec) |
| --- | --- | --- | --- | --- | --- |
| O=C(O)c1cc(NC(=S)NCCCCC2CN3CCNC(=O)c4cccc(c4O)C(=O)NCCN(CCNC(=O)c4cccc(c4O)C(=O)N2)CCN2CCNC(=O)c4cccc(c4O)C(=O)NCCN(CCNC(=O)c4cccc(c4O)C(=O)NCC2)CC3)ccc1-c1c2ccc(=O)cc-2oc2cc(O)ccc12 (stereo not shown) [4a] | 520 nsec and 524 nsec | 340 | 490 | 519 nm and 520 nm | – |
| O=C(O)c1cc(NC(=S)NCCCCC2CN3CCNC(=O)c4cccc(c4O)C(=O)NCCN(CCNC(=O)c4cccc(c4O)C(=O)N2)CCN2CCNC(=O)c4cccc(c4O)C(=O)NCCN(CCNC(=O)c4cccc(c4O)C(=O)NCC2)CC3)ccc1-c1c2ccc(=O)cc-2oc2cc(O)ccc12 (stereo not shown) [compound 3] | 524 nsec | – | – | 520 nm | over 100 fold |
